# Test results as given in US20030170722A1, “Methods and reagents for regulating apoptosis” (priority 2001, published 2003).
# Experiments:
# Assay type in all cases: cell-based
# Rat2 fibroblasts [1] = experiment: TUNEL analysis of staurosporine-induced apoptosis in Rat2puro / Rat2M11L cells; conditions: 2 μM staurosporine, 5 h
# Description: Ectopic Expression of M11L. Control pBabePuro and pBabe-PuroM11L vectors were transiently transfected into BOSC 23 cells and packaged into ecotropic virus particles as described (27). After infection of Rat2 fibroblasts, pooled clones of cells that had stably incorporated the respective proviruses were selected on the basis of ability to grow in the presence of 2.5 μg/ml puromycin, and designated Rat2puro and Rat2M11L. Expression of the M11L protein by Rat2M11L cells was verified by immunoblot analysis (data not shown). Transient expression of GFP chimeric proteins for flow cytometry was accomplished by transfecting HeLa cells with GFP plasmid constructs using the Lipofectin Plus reagent (GIBCO BRL) as described (28). Analysis was conducted 24 h after transfection.
# Induction and Measurement of Apoptosis. Apoptosis was induced by addition of staurosporine (Sigma Chemical Co.) to the cell culture medium at a final concentration of 2 μM. Apoptotic cells were identified by measuring the characteristic elevation in levels of nicked DNA using the previously described terminal deoxynucleotidyl transferase-mediated dUTP-fluorescein nick end labeling (TUNEL) reaction (19, 29).
# Caspase-3 = Caspase-3 activation by SDS-PAGE and immunoblot in Rat2puro / Rat2M11L cells; conditions: 5 μM staurosporine, 4 h
# Description: Measurement of Caspase-3 Activation. Rat2puro and Rat2-M11L cells (10^6) were incubated with 5 μM staurosporine for up to 4 h. Caspase-3 activation was detected by SDS-PAGE and immunoblot analysis as described (30) using an antibody directed against the large subunit of the active enzyme (provided by Dr. D. Nicholson, MerckFrosst Center for Therapeutic Research, Montreal, Quebec, Canada).
# Rat2 fibroblasts [2] = conditions: control cells, CCCP 50 μM
# Description: Measurement of Mitochondrial Membrane Potential in Cells Expressing M11L Constructs. Rat2puro or Rat2M11L cells were cultured in 12-well plates (5×10^5 cells/well) and treated with 2 μM staurosporine for 4 h. As the staurosporine stock was prepared in DMSO, control cells were treated with an equivalent amount of DMSO alone. Thereafter, the cells were stained with the green fluorescent dye 3,3′dihexyloxacarbocyanine iodide (DiOC6; Molecular Probes). […] Cells were incubated with 0.5 nM DiOC6 at 37° C. for 10 min, harvested with trypsin, and then washed and resuspended in RPMI lacking phenol red (GIBCO BRL). […] CCCP was added to the cell culture medium at a final concentration of 50 μM during and after dye addition. Flow cytometric analysis was conducted using a Becton Dickinson FACSCalibur™ flow cytometer equipped with an argon ion laser with 15 mW of excitation at 488 nm. Data were acquired at 10,000 cells per sample, and the fluorescent signal due to excitation of DiOC6 at 488 nm was detected through the FL1 channel equipped with a 530 nm filter (30 nm band pass). Light scatter signals were acquired at linear gain, and fluorescence signals were acquired at logarithmic gain.
# HeLa cells = experiment: Mitochondrial membrane potential by TMRE fluorescence in HeLa cells expressing GFP constructs; conditions: CCCP
# Description: Measurement of Mitochondrial Membrane Potential in Cells Expressing M11L Constructs. […] Flow cytometric analysis was conducted using a Becton Dickinson FACSCalibur™ flow cytometer equipped with an argon ion laser with 15 mW of excitation at 488 nm. […] HeLa cells transiently expressing GFP plasmid constructs were treated with 2.5 μM staurosporine, and control samples were treated with DMSO alone. […] Flow cytometric analysis to detect green fluorescence due to GFP and orange fluorescence due to TMRE was conducted using a FACSCalibur™ instrument specified above. GFP fluorescence was collected after a 530/30-nm band pass filter, and TMRE fluorescence was acquired through a 585/42-nm band pass filter. Electronic fluorescence compensation was set to eliminate any spectral overlap of the emitted signals. Data were acquired at 10,000 cells per sample with fluorescence signals at logarithmic gain. The percentage of GFP-positive cells that were also TMRE-positive was then calculated for each gated cell population.
Compound,levels of TUNEL-positive (apoptotic) cells (Rat2 fibroblasts [1]),"Caspase-3 activation (32 kD proenzyme reduced, p19 cleavage product) (Caspase-3)",DiOC6 fluorescence (mitochondrial membrane potential) (Rat2 fibroblasts [2]),TMRE fluorescence (mitochondrial membrane potential) (HeLa cells)
CN[C@@H]1C[C@H]2O[C@@](C)([C@@H]1OC)n1c3ccccc3c3c4c(c5c6ccccc6n2c5c31)C(=O)NC4 [staurosporine],steady increase in the levels of TUNEL-positive Rat2puro cells,resulted in activation of Caspase-3,,
carbonyl cyanide mchlorophenyl hydrazone [CCCP],,,Fluorescence was diminished,induced a marked loss of TMRE fluorescence
